Source: patent US3984431A, “Derivatives of pyrazole-5-acetic acid” (priority 1972, dated 1976)
Read-outs that look alike come from different tables or passages of the source.

Experiments:
[1] = test system: Pain (cramp) caused by acetic acid; experiment: Analgesic action: pain (cramp) caused by acetic acid in the mouse (Siegmund); type: in vivo; settings: for ED50: sc, read-out: 50% effective dose
Experimental: The analgesic action was tested in relation to the pain caused in the mouse by the subcutaneous injection of acetic acid.
(§1) In all cases the products of the invention are compared to the following reference substances, aspirin, phenylbutazone, indomethacine.

[2] = test system: Carragheen induced oedema; experiment: Anti-inflammatory action: carragheen induced oedema (Winter); type: in vivo, rat; settings: read-out: 50% effective dose
Text: 1. Carragheen induced odema; method of Winter Arch. intern.
as §1

[3] = test system: Ultra-violet induced erythema; experiment: Anti-inflammatory action: ultra-violet induced erythema (Winter); type: in vivo, guinea-pig; settings: Cavia porcellus, read-out: 50% effective dose
Text: 2. Ultra-violet induced erythema; method of Winter Arch. intern.
as §1

Cotton pellet granulema = experiment: Anti-inflammatory action: cotton pellet granuloma (Winter); type: in vivo, rat; settings: read-out: 50% effective dose
Text: as §1

[4] = test system: Brewer's yeast induced pyrexia; experiment: Antipyretic action: Brewer's yeast induced pyrexia (Bianchi); type: in vivo, rat; settings: read-out: 50% effective dose
Text: Antipyretic action was established on the pyretic rat by the Bianchi method.
as §1

[5] = Overall appraisal of anti-inflammatory, antipyretic and analgesic tests versus reference substances; type: in vivo; settings: for overall activity compared with phenylbutazone (in words): compared to phenylbutazone; for overall activity compared with example 5 (in words): compared to example 5
Experimental: 1. Carragheen induced odema; method of Winter Arch. intern. Pharmacod. volume 112, page 174 (1957)
2. Ultra-violet induced erythema; method of Winter Arch. intern. Pharmacod. volume 114, page 261 (1958)
3. The formation of granulomae caused by the sub-cutaneous implantation of pellets of cotton in the rat; method of Winter Journal of the American Pharmaceutical Association, Science Edition, Volume 46, page 515 (1957)
The analgesic action was tested in relation to the pain caused in the mouse by the subcutaneous injection of acetic acid. Method based upon that of Siegmund, Proceedings of the Society of Experimental Biology and Medicine, volume 75, page 729 (1957)
Antipyretic action was established on the pyretic rat by the Bianchi method. Arzneimittel Forschung, volume 17, page 246 (1967)
as §1

[6] = mouse, acetic acid injected subcutaneously
[7] = guinea-pig, oral administration
[8] = rat, oral administration, sub-cutaneous implantation of cotton pellets

SMILES	analgesic effect (in words) ([1]; from the table)	ED50 [1, 6] [mg/kg]	ED50 ([2]; rat, oral administration) [mg/kg]	ED50 [3, 7] [mg/kg]	ED50 (Cotton pellet granulema; [8]) [mg/kg]	ED50 ([4]; pyretic rat) [mg/kg]	overall activity compared with indomethacine (in words) ([5]; compared to indomethacine)	overall activity compared with phenylbutazone (in words) [5]	anti-inflammatory and anti-pyretic activity (in words) ([5]; from the table)	ED50 ([1]; Mus musculus) [mg/kg]	ED50 ([2]; Rattus norvegicus, po) [mg/kg]	ED50 ([3]; po) [mg/kg]	ED50 ([4]; Rattus norvegicus) [mg/kg]	overall activity compared with example 5 (in words) [5]	ED50 (Cotton pellet granulema; Rattus norvegicus, po) [mg/kg]
O=C(O)Cc1c(-c2ccccc2)c(-c2ccccc2)nn1-c1ccccc1 [Example 5, 1,3,4-triphenylpyrazolyl-5-acetic acid]	marked analgesic effect	90	14	3	6	0.6	at least equivalent to indomethacine	much more powerful than phenylbutazone	powerful anti-inflammatory and anti-pyretic agent	–	–	–	–	–	–
CC(=O)Oc1ccccc1C(=O)O [ASPIRIN, aspirin, reference compound]	–	–	–	–	–	–	–	–	–	130	180	50	30	–	–
CC(C)Cn1nc(-c2ccccc2)c(-c2ccccc2)c1CC(=O)O [Example 3, 1-isobutyl-3,4-diphenylpyrazolyl-5-acetic acid]	–	180	30	1	18	0.5	–	still more powerful than phenylbutazone	–	–	–	–	–	active substances, although slightly less so than example 5	–
COc1ccc2c(c1)c(CC(=O)O)c(C)n2C(=O)c1ccc(Cl)cc1 [INDOMETHACINE, indomethacine, reference compound]	–	–	–	–	–	–	–	–	–	5.5	14	1.5	1.3	–	8
CCCCC1C(=O)N(c2ccccc2)N(c2ccccc2)C1=O [PHENYLBUTAZONE, phenylbutazone, reference compound]	–	110	120	8.5	200	10	–	–	–	–	–	–	–	–	–
O=C(O)Cc1c(-c2ccccc2)c(-c2ccccc2)nn1Cc1ccccc1 [Example 1, 1-benzyl-3,4-diphenylpyrazolyl-5-acetic acid]	–	150	60	1.6	80	1	–	–	–	–	–	–	–	active substances, although slightly less so than example 5	–
